Measured values reported in US12071411B2, “Inhibitors of HIF-2α and methods of use thereof” (ARCUS BIOSCIENCES, INC., priority 2021, dated 2024).

How the values were obtained:
[1] = biological target: T1, HIF-2α (Homo sapiens, UniProt Q99814); experiment: HIF-2α Luciferase Reporter Assay (serum), HRE-luciferase 786-0 cells in 100% human serum; format: cell-based; conditions: for IC50: 100% human serum, 786-0 reporter cells, overnight incubation, read-out: Serum Potency; for Serum Shift (approximate): ratio of IC50 in 100% serum to IC50 in serum free conditions
T1 sequence (Q99814 whole entry): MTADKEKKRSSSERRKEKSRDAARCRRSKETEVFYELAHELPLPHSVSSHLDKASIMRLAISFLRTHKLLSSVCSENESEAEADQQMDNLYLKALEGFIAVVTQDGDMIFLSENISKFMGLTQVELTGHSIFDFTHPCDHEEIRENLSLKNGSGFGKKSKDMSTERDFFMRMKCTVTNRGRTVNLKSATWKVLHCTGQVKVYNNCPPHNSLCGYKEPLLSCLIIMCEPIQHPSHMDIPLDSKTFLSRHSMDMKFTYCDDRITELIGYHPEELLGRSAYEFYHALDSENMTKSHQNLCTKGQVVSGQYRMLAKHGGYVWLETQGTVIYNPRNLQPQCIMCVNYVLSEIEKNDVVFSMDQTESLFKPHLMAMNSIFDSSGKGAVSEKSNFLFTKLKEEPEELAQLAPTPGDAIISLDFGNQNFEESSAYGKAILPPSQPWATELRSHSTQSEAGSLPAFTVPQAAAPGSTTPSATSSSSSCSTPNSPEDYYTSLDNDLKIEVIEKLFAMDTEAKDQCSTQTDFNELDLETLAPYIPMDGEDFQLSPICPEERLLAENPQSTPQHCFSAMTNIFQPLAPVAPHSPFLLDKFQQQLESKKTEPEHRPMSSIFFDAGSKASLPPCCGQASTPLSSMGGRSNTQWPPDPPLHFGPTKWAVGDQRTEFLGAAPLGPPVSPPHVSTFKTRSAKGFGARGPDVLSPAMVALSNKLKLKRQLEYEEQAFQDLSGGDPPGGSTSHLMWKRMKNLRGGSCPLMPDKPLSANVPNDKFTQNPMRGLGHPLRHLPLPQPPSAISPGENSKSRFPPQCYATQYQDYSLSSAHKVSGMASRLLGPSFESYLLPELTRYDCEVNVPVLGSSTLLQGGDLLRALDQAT
Method in brief: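 786-0 cells stably expressing an HRE-luciferase reporter were plated and rested 3 h. They were then treated overnight at 37 °C with compound diluted in 100% human serum. Serum was replaced with Opti-MEM, ONE-Glo luminescence was read, and IC50 came from a 4-parameter logistic fit.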

[2] = biological target: T2, Biotin tagged HIF-2α protein containing PAS-B domain (240-350) (Homo sapiens, UniProt Q99814); experiment: HIF-2α Scintillation Proximity Assay (SPA) binding assay; conditions: 50 nM HIF-2α protein, 25 nM 3H-tracer, 2% DMSO
T2 construct: Biotin tagged HIF-2α protein containing PAS-B domain (240-350) was prepared and purified in-house; made in house
T2 sequence (Q99814 240-350): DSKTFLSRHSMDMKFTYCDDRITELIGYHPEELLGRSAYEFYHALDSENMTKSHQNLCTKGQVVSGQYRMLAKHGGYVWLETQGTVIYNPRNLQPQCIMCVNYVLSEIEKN
Method: HIF-2α Scintillation Proximity Assay (SPA) Binding Assay:
Biotin tagged HIF-2α protein containing PAS-B domain (240-350) was prepared and purified in-house.
Compounds solubilized in DMSO were dispensed into a white 384-well polystyrene non-binding flat clear bottom plate (Greiner Bio-One, Cat #781903) using an HP D300 dispenser. Ten microliters of biotinylated HIF-2α protein in buffer (25 mM Tris-HCl, pH 7.4, 150 mM NaCl, 0.15% BSA and 0.001% Tween 20) was added to the compound wells and allowed to incubate for 1 hour at room temperature. Ten microliters of SPA bead mix were added to the wells and incubated for an additional 45 minutes, followed by 10 ul of ^3H-tracer solution. Final assay conditions comprised 50 nM HIF-2α protein, 25 nM radiolabeled tracer and 3 ug beads per well with compounds in 2% DMSO. The plate was read using a MicroBeta Microplate Counter (PerkinElmer) for luminescence detection. The IC50 values of the test compounds were determined from compound dose response curves fitted using a standard four parameter fit equation and are reported in Table 2.

[3] = biological target: T1, HIF-2α; experiment: HIF-2α Luciferase Reporter Assay (serum free) in HIF-Luc-786-0 cells; format: cell-based; conditions: Opti-MEM, 786-0 reporter cells, 20 hours incubation
Method in brief: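 786-0 cells stably transduced with HIF luciferase reporter, 20,000 cells/well in serum-free Opti-MEM, compounds (50 uM downward, 1% DMSO) 20 h at 37 °C. ONE-Glo luminescence normalized to DMSO and no-cell controls; IC50 from four-parameter fit.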

IC50 [1]	Serum Shift (approximate) [1]	IC50 [2]	IC50 [3]	Compound
100 to 1000 nM	8	< 100 nM	100 to 1000 nM	CC(CCn1nc(C(F)(F)F)c2c1CCC(F)(F)[C@H]2O)C(F)(F)F (stereo partly drawn) [Example 38, (4S)-5,5-difluoro-3-(trifluoromethyl)-1-(4,4,4-trifluoro-3-methylbutyl)-6,7-dihydro-4H-indazol-4-ol]
> 1000 nM	9	100 to 1000 nM	100 to 1000 nM	O[C@H]1c2c(C(F)(F)F)nn(CCC(F)(F)F)c2CCC1(F)F [Example 33, (4S)-5,5-difluoro-3-(trifluoromethyl)-1-(3,3,3-trifluoropropyl)-6,7-dihydro-4H-indazol-4-ol]

The remaining lines, values behind:

Compound	IC50 [1]	Serum Shift (approximate) [1]	IC50 [2]	IC50 [3]
O[C@H]1c2c(C(F)(F)F)nn(CCC3CC3)c2CCC1(F)F [Example 22, (4S)-1-(2-cyclopropylethyl)-5,5-difluoro-3-(trifluoromethyl)-4,5,6,7-tetrahydro-1H-indazol-4-ol]	> 1000 nM	10	100 to 1000 nM	100 to 1000 nM
CC(C)(C#N)CCn1nc(C(F)(F)F)c2c1CCC(F)(F)[C@H]2O [Example 1, 4-[(4S)-5,5-Difluoro-4-hydroxy-3-(trifluoromethyl)-6,7-dihydro-4H-indazol-1-yl]-2,2-dimethylbutanenitrile]	> 1000 nM	2	100 to 1000 nM	> 1000 nM
O[C@H]1c2c(C(F)(F)F)nn(CCC3CC3(F)F)c2CCC1(F)F (stereo partly drawn) [Example 20, (4S)-1-[2-(2,2-difluorocyclopropyl)ethyl]-5,5-difluoro-3-(trifluoromethyl)-4,5,6,7-tetrahydro-1H-indazol-4-ol]	100 to 1000 nM	7	< 100 nM	< 100 nM
